Measured values reported in patent publication US20060234914A1, “Fragments of proinsulin c-peptide” (Creative Peptides Sweden AB, priority 2002, published 2006).
Read-outs that look alike come from different tables or passages of the source.

Legend:
[1] = test system: p44/42 MAP kinase (Erk1 and Erk2); assay: Western blot of p44/42 MAP kinase phosphorylation in Swiss 3T3 cells; type: cell-based, rat; settings: Example 6, 1 nM peptide, 3 minutes at 37° C., FIG. 3
Method: Swiss 3T3 cells, a […] fibroblast cell line, passage 6, were seeded 96 h before use in three 6-well plates. After 96 h, the cells in each well were confluent. The cultivation medium was Dulbecco's Modified Eagle Medium (DMEM) without sodium pyruvate, with pyridoxineHCl, 4500 mg/l glucose, 50 μg/ml gentamicin, and 10% foetal calf serum (FCS).
The cells were washed thoroughly with 37° C. starvation medium (cultivation medium as above without addition of FCS) and then kept in 1 ml 37° C. starvation medium for 2.5 h. 15 min. prior to the experiment, the buffer was changed to 37° C. Hanks' buffer (Gibco), and then kept in 37° C. […]
Protein content was determined in the collected supernatants using a BCA Protein Assay Reagent Kit (Pierce), including albumin standards. […]
The PVDF membranes were incubated with primary antibodies against (I) Phosphop44/42 MAP Kinase (Thr202/Tyr204) and (II) p44/42 MAP Kinase, respectively. […] The membranes were rinsed with TBS/T, and HRP activity on the membranes was detected with the SuperSignal® West Pico Chemiluminescent Substrate kit (Pierce).
Photographic films were exposed to the membranes, and bands of appropriate sizes on the resulting films were quantitated by densitometry, using a GS-710 Imaging Densitometer (Bio-Rad) and Quantity One software (Bio-Rad). […]

[2] = test system: human renal tubular cells; assay: Intracellular Ca2+ concentration ([Ca2+]i) measurements as an assay of C-peptide activity; type: cell-based; settings: for [Ca2+]i response after preincubation of the cells with pertussis toxin: pertussis toxin 1 μg/ml for 4 h at 37° C.
Description: Based on studies showing a C-peptide effect on the intracellular Ca^2+ concentration ([Ca^2+]) (Ohtomo et al., supra, Kunt et al., supra), an assay has been developed, for C-peptide activity, based on measuring [Ca^2+]i changes in human renal tubular cells, namely a rise in [Ca^2+]i.
The following peptides were used, all prepared by solid-phase peptide synthesis and purchased from Sigma (Genosys (Cambridge, UK): human C-peptide, scrambled C-peptide (with the same residues, but randomly ordered des (27-31) C-peptide and C-terminal pentapeptide (EGSLQ).
Human renal tubular cells were obtained from the outer cortex of renal tissues obtained from non-diabetic patients undergoing elective nephrectomy for renal cell carcinomas. The collection of the tissue samples during suegery was approved by the Ethics Committee of the Karolinska Hospital. The cells were cultured in RPMI 1640 (Life Technologies, Grand Island, N.Y.) supplemented with 10% fetal calf serum, 2 mM L-glutamine, 10 mM HEPES, benzylpenicillin (100 U/ml), and streptbmycin (100 U/ml). Cells were grown to confluency on cover slips in a six-well plate and starved in serum-free medium for 4 hours before experiments.
Changes in [Ca^2+1]1 were measured on cells attached to cover slips. The cells were loaded with 2 μM of the fluorescent Ca^2+ indicator fura-2/AM at 37° C. for 30 minutes in a buffer containing 115 mM NaCl, 24 mM NaHCO3, 4.7 mM KCl, 1.26 mM CaCl2 1.2 mM KH2PO4, 1.2 mM MgSOZ 11.1 mM glucose, 20 mM HEPES, and 5 mg/ml bovine serum albumin, pH 7.4. Cover slips were mounted as the bottom of an open chamber placed on a thermostatically controlled stage of an inverted epifluorescence microscope (Zeiss, Axiovert 135). The microscope was connected to a SPEX fluorolog-2 system for dual-wave-length excitation fluorimetry. The emissions of the two excitation wavelengths of 340 and 380 nm were used to calculate the fluorescence ratio (F340/F380) reflecting changes in [Ca^2+]i, [17]. Treatments during recordings were made using a perifusion system attached to the chamber. Changes in [Ca^2+]i were measured using an attached CCD camera that allowed recording of individual cells in the cell clusters. The influence of pertussis toxin was studied by preincubation of the cells with the toxin at 1 μg/ml for 4 h at 37° C.
In these peptides each or all of Glu 3, Glu 11 and Glu 27 of human C-peptide were replaced by Ala. In addition, all of Glu 3, Glu 11 and Glu 27 were replaced by Gln. The peptides were tested for C-peptide activity by monitoring for rises in [Ca^2+]i as described in Example 1.

Row | Substance | capacity of phosphorylating p44/42 MAP kinase [1] | changes in [Ca2+]i (F340/F380 ratio) ([2]; human renal tubular cells loaded with fura-2/AM, peptide 5 and 10 nM) | [Ca2+]i response after preincubation of the cells with pertussis toxin [2] | changes in [Ca2+]i (F340/F380 ratio) [2]
1 | EAEALQAAQAELGGGPGAGSLQPLALEGSLQ (EAEALQAAQAELGGGPGAGSLQPLALEGSLQ) [Alanine-rich C-peptide] | did not decrease the biological activity |  |  | 
2 | EAEDLQVGQVELGGGPGAGSLQPLALEGSLQ [human C-peptide] |  | effect of 5 nM human C-peptide may be seen | eliminated | 
3 | EAEPLQPPQPELGGGPGAGSLQPLALEGSLQ [Proline-rich C-peptide] | decrease in phosphorylating capacity |  |  | 
4 | EGSLQ [C-terminal pentapeptide] |  |  | eliminated | Results similar to those with human C-peptide
